Here are results for six compounds from patent EP3730147A1, “PREPARATION WITH HYPOGLYCEMIC EFFECT” (Instytut Biotechnologii i Badan Medycznych "Biolamed" SP. Z …, priority 2019, dated 2020).

The target in test [1] is T1, rat liver glucose-6-phosphate dehydrogenase (DG-6-P) (Rattus norvegicus, UniProt P05370).
T1 construct: an additional enzyme purification procedure was performed; from tissue; host or cells: rat liver (5.6-fold purified enzyme preparation)
Put plainly: Effect on DG-6-P activity in 5.6-fold purified rat liver enzyme. The format is biochemical. The note with it: for remaining activity at 5 µM / remaining activity at 25 µM: read-out: % of control (DG-6-P activity). The text has this: (§1) Rat liver glycogen phosphorylase, rat liver and skeletal muscle hexokinase, rat liver glucose-6-phosphate dehydrogenase (DG-6-P), rat liver and skeletal muscle phosphofructokinase were selected as potential targets for in vitro testing of the hypoglycemic activity of lupane triterpenoids.
Surprising results were obtained by examining the effect of lupane triterpenoids on glucose-6-phosphate activity. […] In both cases, the observed effects were dose-dependent. […] Table 1. Effect of lupane triterpenoids on DG-6-P activity in 5.6-fold purified rat liver

In test [2] the test system is Wistar rats. Put plainly: Blood glucose after glucose load in rats with alloxan-induced diabetes. The test is classed as in vivo. The note with it: 100 mg/kg; for Glucose concentration: glucose load 4 g/kg 4 hours after drug; for time after glucose administration at which glucose indicators normalized: alloxan diabetes, glucose load 4 g/kg. The method, then: The study was conducted on Wistar rats weighing 220-250 g. All animals were subjected to two weeks of observation prior to the experiment to exclude infection. Rats were housed in standard cages, 5 individuals in each. The animals stayed in a room with a temperature of 22±2°C, air humidity 60-70% and in natural lighting (12/12 in a day/night cycle). The animals had free access to water and standard laboratory feed ad libitum.
Diabetes was caused by a single intraperitoneal administration of alloxan at a dose of 170 mg/kg bw. The development of diabetes was observed on the basis of the main symptoms (polydipsia, polyphagia), glycosuria and hyperglycemia. Animals with high glucose levels of at least 14 mmol/L were selected for the experiment.
Animals were randomized into 6 groups of 8 individuals each. The first group, the control group, was formed from healthy animals without diabetes. The control group (healthy animals) received NaCl 1 ml/kg; Group 2. - diabetes mellitus (DM), received NaCl 1 ml/kg; Group 3. - DM + Betulin, at a dose of 100 mg/kg; Group 4. - DM + Lupeol, at a dose of 100 mg/kg; Group 5 - DM + Betulonic acid, at a dose of 100 mg/kg; Group 6 - DM + Betulinic acid, at a dose of 100 mg/kg; Group 7 - DM + Betulin-3,28-diacetate, at a dose of 100 mg/kg.
4 hours after drug administration, all animals intragastrically received a 40% glucose solution at a dose of 4 g/kg. The time of administration is determined in the available literature on its pharmacokinetics - peak plasma levels of lupane triterpenoids in rats are observed 3-4 hours after intragastric administration.
Peripheral blood glucose was determined using a Roche AccuCheck Active meter (USA) before and after glucose administration every 60 minutes for 5 hours. A drop of blood was taken from the tail tip incision.

Test [3] has as its system Wistar rats. Put plainly: Blood glucose in rats with glucose-induced hyperglycemia (OGTT-2 / OGTT-4). The test is classed as in vivo. The conditions noted are these: compared to control animals. As for the experimental part: To study the effect of betulin, 3,28-diacetate betulin, betulinic acid and lupeol on blood glucose levels in rats with induced hyperglycemia, the animals received 2 hours prior to glucose administration, test substances at doses of 100 or 1000 mg/kg. Hyperglycaemia was caused by oral administration of a 40% glucose solution at a dose of 2 g/kg (OGTT-2) or 4 g/kg (OGTT-4). The study was conducted on Wistar rats weighing 220-250 g. All animals were subjected to two weeks of observation prior to the experiment to exclude infection. Rats were housed in standard cages, 5 individuals in each. […] The animals had free access to water and standard laboratory feed ad libitum. Animals were randomized into 5 groups, 8 individuals each. Hyperglycaemia was caused by administration of a 40% glucose solution at doses of 2 or 4 g/kg. […] Blood glucose was determined with a Roche AccuCheck Active glucometer (USA) before and after glucose administration every 30 minutes for 2 hours and then every 60 minutes for 6 hours.

Test [4] deals with Wistar rats. Put plainly: Pancreatic islet morphometry in rats with alloxan-induced diabetes, 30 days treatment. The format is in vivo. As for the experimental part: The possible cytoprotective effect of lupane triterpenoids on the functional state of the pancreas in alloxan-induced diabetes in rats was evaluated. Alloxane was used to induce diabetes, which causes damage to the necrotic islet type pancreatic apparatus due to selective accumulation in β-cells and induction of massive free radical generation. The study was conducted on Wistar rats weighing 220-250 g. All animals were subjected to two weeks of observation prior to the experiment to exclude infection. Rats were housed in standard cages, 5 individuals in each. […] The animals had free access to water and standard laboratory feed ad libitum. Diabetes was caused by a single intraperitoneal administration of alloxan at a dose of 170 mg/kg bw. The development of diabetes was observed on the basis of the main symptoms (polydipsia, polyphagia), glycosuria and hyperglycemia. Animals with high glucose levels of at least 14 mmol/L were selected for the experiment. Animals were randomized into 8 groups of 8 individuals each. The first group, the control group, was formed from healthy animals without diabetes. The control group (healthy animals) received NaCl 1 ml/kg; Group 2 - DM + Lupeol, at a dose of 100 mg/kg; Group 3 - DM + Betulonic acid, at a dose of 100 mg/kg; Group 4 - DM + 3,28-betulin diacetate, at a dose of 100 mg/kg; Group 5 - DM + Betulinic acid, at a dose of 50 mg/kg; Group 6 - DM + Betulinic acid, at a dose of 100 mg/kg; Group 7 - DM + Betulin, at a dose of 50 mg/kg; Group 8 - DM + Betulin, at a dose of 100 mg/kg.

In test [5] the target is T2, Rat liver glycogen phosphorylase (Rattus norvegicus, UniProt P09811).
T2 construct: from tissue; host or cells: rat liver homogenates and post-mitochondrial fraction
T2 sequence (P09811 1-850): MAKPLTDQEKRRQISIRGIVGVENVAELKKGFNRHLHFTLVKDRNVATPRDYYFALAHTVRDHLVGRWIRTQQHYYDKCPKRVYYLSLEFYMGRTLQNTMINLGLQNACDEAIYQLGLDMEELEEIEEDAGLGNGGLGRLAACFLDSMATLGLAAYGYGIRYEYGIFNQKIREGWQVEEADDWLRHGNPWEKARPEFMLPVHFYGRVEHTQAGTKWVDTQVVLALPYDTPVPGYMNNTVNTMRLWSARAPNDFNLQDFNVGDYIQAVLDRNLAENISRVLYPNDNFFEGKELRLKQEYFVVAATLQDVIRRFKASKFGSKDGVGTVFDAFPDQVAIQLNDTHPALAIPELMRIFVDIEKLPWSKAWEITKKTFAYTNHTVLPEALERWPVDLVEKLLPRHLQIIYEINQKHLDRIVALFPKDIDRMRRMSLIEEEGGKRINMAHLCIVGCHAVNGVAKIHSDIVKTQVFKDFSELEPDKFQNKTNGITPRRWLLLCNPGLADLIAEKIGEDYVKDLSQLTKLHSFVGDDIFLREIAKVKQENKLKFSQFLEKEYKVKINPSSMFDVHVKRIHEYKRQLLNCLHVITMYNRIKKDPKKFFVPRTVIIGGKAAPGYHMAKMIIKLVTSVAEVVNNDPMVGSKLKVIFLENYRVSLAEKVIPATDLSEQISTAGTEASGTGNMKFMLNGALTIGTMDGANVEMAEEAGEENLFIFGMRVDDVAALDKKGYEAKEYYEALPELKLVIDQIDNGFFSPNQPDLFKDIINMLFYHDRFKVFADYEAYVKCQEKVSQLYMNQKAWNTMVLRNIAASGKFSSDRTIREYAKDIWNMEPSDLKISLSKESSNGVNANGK
As to the kind of experiment: Effect on glycogen phosphorylase activity in rat liver homogenates and post-mitochondrial fraction. The format is biochemical.
Text: as §1

For test [6], the system named is pancreatic islet β-cells. Put plainly: Insulin secretion by isolated Langerhans islets (enzyme immunoassay). The format is cell-based. The conditions noted are these: 10 µM, 30 minutes incubation, compared to the control group. The method, then:
To study the effect of betulin and betulinic acid on insulin secretion by pancreatic islet β-cells, their solutions in DMSO were incubated with isolated Langerhans islands in concentrations of 10 µM for 30 minutes, after which the insulin content in the incubation medium was determined by enzyme immunoassay.
The strongest reaction was observed after 30 minutes of incubation in the presence of 10 µM lupane triterpenoids (Figure 1).

Where [7] appears, read: 50 mg/kg/day for 30 days, compared to the untreated group.

Marks after values point to notes of the source that are not given here.

T1 sequence (P05370 whole entry): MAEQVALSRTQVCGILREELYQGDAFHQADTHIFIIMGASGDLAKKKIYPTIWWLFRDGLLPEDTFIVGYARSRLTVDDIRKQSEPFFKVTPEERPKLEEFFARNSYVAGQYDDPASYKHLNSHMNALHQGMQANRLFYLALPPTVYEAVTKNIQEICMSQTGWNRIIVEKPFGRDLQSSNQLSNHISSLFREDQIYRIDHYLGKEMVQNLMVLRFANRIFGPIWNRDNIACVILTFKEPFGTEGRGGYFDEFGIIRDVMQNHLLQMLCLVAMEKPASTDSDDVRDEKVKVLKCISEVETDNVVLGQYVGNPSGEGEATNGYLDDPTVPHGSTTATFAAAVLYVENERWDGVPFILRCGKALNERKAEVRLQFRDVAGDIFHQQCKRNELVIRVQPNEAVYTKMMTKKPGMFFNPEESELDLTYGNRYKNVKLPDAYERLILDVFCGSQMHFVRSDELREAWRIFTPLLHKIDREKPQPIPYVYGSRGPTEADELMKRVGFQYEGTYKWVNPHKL

As for `C=C(C)[C@@H]1CC[C@]2(COC(C)=O)CC[C@]3(C)[C@H](CC[C@@H]4[C@@]5(C)CC[C@H](OC(C)=O)C(C)(C)[C@@H]5CC[C@]43C)[C@@H]12` [3,28-betulin diacetate], in test [1] (5 µM), the “E (DG-6-P activity)” value is 0,158±0,002 and the remaining activity at 5 µM is 75%. In test [1] (25 µM), the “E (DG-6-P activity)” value is 0,111±0,008 and the remaining activity at 25 µM was 52.8%. For the same compound, the Glucose concentration in test [2] (blood collection time 5 hours) is on record as 8,51±0,52 mmol/l.
`C=C(C)[C@@H]1CC[C@]2(C(=O)O)CC[C@]3(C)[C@H](CC[C@@H]4[C@@]5(C)CC[C@H](O)C(C)(C)[C@@H]5CC[C@]43C)[C@@H]12` [Betulinic acid]: the remaining activity at 5 µM in test [1] (5 µM) was 68.8%. Besides, the remaining activity at 25 µM in test [1] (25 µM) turned out to be 44.2%. Also, the “reduction in blood glucose levels at the peak of hyperglycemia” value in test [3] is reported as 30-35%. The “time after glucose administration at which glucose indicators normalized” value in test [2] was 4 h. Moreover, the results for the Glucose concentration in test [2] (blood collection time 0 hours), in test [2] (blood collection time 2 hours) and in test [2] (blood collection time 5 hours) were 10,12±0,70 mmol/l, 25,64±1,50 mmol/l and 7,88±1,30* * mmol/l, respectively. For the same compound, in test [4] (setting [7]), the “increase of the number of β-cells in the islets” value is given as 25-35%. In test [4] (setting [7]), the islet diameter increase is recorded as 10-15%.
For `C=C(C)[C@@H]1CC[C@]2(CO)CC[C@]3(C)[C@H](CC[C@@H]4[C@@]5(C)CC[C@H](O)C(C)(C)[C@@H]5CC[C@]43C)[C@@H]12` [Betulin], in test [1] (5 µM), the “E (DG-6-P activity)” value was 0,149±0,004 and the remaining activity at 5 µM was found to be 71%. In test [1] (25 µM), the “E (DG-6-P activity)” value is reported as 0,100±0,002 and the remaining activity at 25 µM came to 47.6%. For the same compound, the glycogen phosphorylase activity result in test [5] is recorded as “greatest inhibitory effect”. For the same compound, the “insulin secretion by pancreatic islet β-cells” value in test [6] is “statistically significantly increase”. In addition, the “reduction in blood glucose levels at the peak of hyperglycemia” value in test [3] is 30-35%. Further, the “time after glucose administration at which glucose indicators normalized” value in test [2] was found to be 4 h. In addition, in test [2] (blood collection time 0 hours), the Glucose concentration is recorded as 10,82±0,31 mmol/l. The Glucose concentration in test [2] (blood collection time 2 hours) is on record as 22,61±0,4 mmol/l. The Glucose concentration in test [2] (blood collection time 5 hours) is on record as 6,01±0,78 mmol/l. Also, the “area of Langerhans islets and their number” value in test [4] (50 mg/kg/day for 30 days) is “tendency to increase”. Also, in test [4] (setting [7]), the “increase of the number of β-cells in the islets” value is 25-35% and the islet diameter increase is reported as 10-15%. Also, the “morphological picture of the pancreas” value in test [4] (100 mg/kg/day for 30 days, compared to the untreated group) is “significant improvement”.
With `C=C(C)[C@@H]1CC[C@]2(C(=O)O)CC[C@]3(C)[C@H](CC[C@@H]4[C@@]5(C)CCC(=O)C(C)(C)[C@@H]5CC[C@]43C)[C@@H]12` [Betulonic acid], the entries for the “E (DG-6-P activity)” value in test [1] (5 µM) and in test [1] (25 µM) were 0,148±0,003 and 0,109±0,007, respectively. Further, the remaining activity at 5 µM in test [1] (5 µM) was found to be 70.3%. In addition, the remaining activity at 25 µM in test [1] (25 µM) came to 51.9%. Further, the glycogen phosphorylase activity result in test [5] is “greatest inhibitory effect”. Also, the Glucose concentration is recorded as 10,32±0,77 mmol/l in test [2] (blood collection time 0 hours), 18,5±0,32 mmol/l in test [2] (blood collection time 2 hours) and 6,52±0,7 mmol/l in test [2] (blood collection time 5 hours).
In the case of `CC1(C)CC[C@]23CC[C@]4(C)[C@H](CC[C@@H]5[C@@]6(C)CC[C@H](O)C(C)(C)[C@@H]6CC[C@]54C)[C@H]2[C@H]1OC3` [Allobetulin], in test [1] (5 µM), the “E (DG-6-P activity)” value is 0,151±0,004 and the remaining activity at 5 µM is 72%. For the same compound, in test [1] (25 µM), the “E (DG-6-P activity)” value is reported as 0,103±0,002 and the remaining activity at 25 µM is 49%.
For the compound `C=C(C)[C@@H]1CC[C@]2(C)CC[C@]3(C)[C@H](CC[C@@H]4[C@@]5(C)CC[C@H](O)C(C)(C)[C@@H]5CC[C@]43C)[C@@H]12` [Lupeol], in test [1] (5 µM), the “E (DG-6-P activity)” value was 0,143±0,005 and the remaining activity at 5 µM is 68%. In test [1] (25 µM), the “E (DG-6-P activity)” value was 0,113±0,009 and the remaining activity at 25 µM came out at 53.6%. Further, the Glucose concentration in test [2] (blood collection time 5 hours) is 9,38±0,75 mmol/l.
